Results taken from patent US11478445B2, “Method for treating acute myeloid leukemia” (Bionomics Limited, priority 2017, dated 2022).
Entries after “also recorded” stand apart in the source; their conditions may differ.

Tests used:
Type in all cases: cell-based, human
[1] = system: primary AML samples L-AML6 and L-AML419; test: Blast cell colony assay (Methocult); conditions: 13 days
Description: 1.5 mL of Methocult H4034 (STEMCELL Technologies) was aliquoted in 5 mL tubes (one tube/treatment/sample) and supplemented with 20 ng/mL of hIL-6 (Peprotech, 200-06). EX 1 and OXi4503 dilutions were added to respective tubes to the final concentrations 100 nM and 500 nM. DMSO was used as vehicle control. Samples were added to each tube to the final cell density: 2×10^4 cells/well for L-AML6 and L-AML419, 3×10^3 cells/well for AML136 and AML480. The tubes were shaken to mix drugs and cells with the Methocult and incubated at 37° C. for 10 min to remove bubbles. Samples were then plated in 24-well plates, 4 wells/treatment/sample in the 8 wells at the centre of the plate. The wells at the edges were filled with sterile water to avoid drying. Plates were incubated at 37° C. for 13 days before colonies were counted.
Blast cell colony assay. For colony assays AML MNC were plated in methylcellulose with added cytokines (see Methods) and colonies scored after 13 days. […] L-AML419 also formed a small number of colonies in the DMSO-treated wells, with fewer background cells.

[2] = system: P-JNK^Thr183/Tyr185; test: Western blot for P-JNK in primary AML sample L-AML6; conditions: L-AML6, 48 h
Description: (§1) Cells were harvested (4×10^6 for cell lines and 7×10^6 for L-AMLs) and washed 3 times with cold PBS (centrifuged at 4° C.). Lysis buffer was prepared with NP40 Cell Lysis Buffer (ThermoFisher Scientific), cOmplete protease inhibitor (Roche, 046993116001), PhosStop (Roche, 04906837001) and Pefablock (Roche, 11585916001) at the recommended concentrations. After the washes, cells were resuspended in 50 μL of lysis buffer, vortexed and incubated on ice for 30 min. Samples were vortexed every 10 min. After 30 min incubation, samples were centrifuged at 14,000 g at 4° C. for 10 min and supernatants were transferred to tubes. Protein was quantified using the DC Protein Assay kit (BioRad) per manufacturer's protocol. 50 μg of cell lines lysate or 20 μg of L-AML6 lysate were loaded for SDS-PAGE. Protein was transferred from the gels into PVDF membranes using a semi dry transfer apparatus (BioRad). The membranes were blocked for 1 h at room temperature with 5% skim milk in 0.1% TBS-t and then incubated with gentle shaking with primary antibodies overnight at 4° C. […]
(§2) Western blot analysis. […] For L-AML6 cells P-JNK^Thr183/Tyr185 and Noxa expression were determined using the specific antibodies that have been validated in the cell line experiments (FIG. 4). […]

[3] = system: Noxa; test: Western blot for Noxa in primary AML sample L-AML6; conditions: L-AML6, 48 h
Description: as §1, §2

[4] = L-AML419, all doses (100 nM and 500 nM)

`COc1cc(C(=O)c2c(C)oc3c(O)c(OC)ccc23)cc(OC)c1OC` [EX 1, 2-Methyl-7-hydroxy-3-(3,4,5-trimethoxybenzoyl)-6-methoxybenzofuran] was tested, and the colony formation ([1]; L-AML6, either dose (100 nM and 500 nM)) was “no colonies or background cells were observed; also recorded: Colony formation is blocked”, the colony formation [1, 4] was “completely blocked colony and background formation; also recorded: Colony formation is blocked” and the P-JNK level ([2]; 500 nM) was “small increase; also recorded: induced”. The Noxa expression [3] was “no change was observed; also recorded: does not appear to change”.
`COc1cc(/C=C\c2ccc(OC)c(OP(=O)(O)O)c2OP(=O)(O)O)cc(OC)c1OC` [OXi4503, reference compound] was tested, and the colony formation ([1]; L-AML6, 100 nM) was “reduced the background cells and also the number of colonies; also recorded: reduces colony formation”, the colony formation ([1]; L-AML6, 500 nM) was “completely blocked colony formation; also recorded: completely inhibits colonies” and the colony formation [1, 4] was “completely blocked colony and background formation; also recorded: completely inhibits colonies”. For the same compound, the P-JNK level ([2]; indicated doses) was “no apparent change” and the Noxa expression [3] was “no change was observed; also recorded: does not appear to change”.
